Results as given in PubChem BioAssay (NCI).
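In this assay, cells in 96-well plates receive the compound at five concentrations for 48 hours. Endpoints are linearly interpolated between the surrounding concentrations. GI50 marks 50% less growth. TGI denotes the concentration required for complete inhibition of growth.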

Tested on: MDA-MB-468 breast
Assay: growth of human tumour cells (NCI), 48 h

Row | Compound | GI50 [µM] | TGI [µM]
1 | O=C(Nc1cccc([N+](=O)[O-])c1)c1ccc2ccccc2c1O | 3.38 | 71.3
2 | Cc1cc(O)ccc1O | 13.3 | 27.3
3 | CCCCCCCCCCCCCCCCOC(=O)c1c(C)[nH]c(/C=C2\N=C(c3ccc[nH]3)C=C2OC)c1C | 1.66 | 5.29
4 | COc1cc2c(cc1OCCCCCn1c(-c3ccco3)nc3ccccc31)N=C[C@@H]1CCCN1C2=O | < 0.01 | < 0.01
5 | CC(C)=CCc1ccc(O)c(=O)cc1C(C)C | 0.868 | 5.36
6 | O=C1/C(=C/c2ccc(Cl)cc2)CN(Cc2cn(CCNc3ccnc4cc(Cl)ccc34)nn2)C/C1=C\c1ccc(Cl)cc1 | 0.234 | 0.644
7 | O=C(CC(O)c1ccncc1)c1ccccc1 (configuration not stated) | 24.3 | > 100
8 | COc1cc(Nc2ncc3c(C)nc(-c4cccc(Oc5ccccc5)c4)n3n2)cc(OC)c1OC | 2.98 | 18.4
9 | COc1ccc2c(c1)C(=O)/C(=C/c1ccc([N+](=O)[O-])s1)O2 | 0.291 | 1.36
10 | COc1ccc(Cn2cc3c(c2-c2ccc(O)cc2)CCc2cnoc2-3)cc1 | 0.245 | 1.25
11 | O=C(Nc1ccc(Cl)cc1)c1ccc([N+](=O)[O-])o1 | 3.08 | 14.9
12 | CCC1=Cc2cc(OC)ccc2OC12C=Cc1cc(OC)ccc1O2 (configuration not stated) | 0.436 | > 100
13 | C=C(C)[C@@H]1CC[C@]2(C(=O)O)CC[C@]3(C)[C@H](CC[C@@H]4[C@@]5(C)C[C@@H](CC#Cc6ccc(Br)cc6)C(=O)C(C)(C)[C@@H]5CC[C@]43C)[C@@H]12 | 7.25 | 33.5
14 | O=c1[nH]ccc2nc(-c3ccc(CN4CCC(c5nc(-c6ccccn6)n[nH]5)CC4)cc3)c(-c3ccccc3)cc12 | 0.0887 | 7.14
15 | O=C1/C(=C/c2ccc([N+](=O)[O-])o2)Oc2ccccc21 | 1.17 | 2.94
16 | Cc1ccc(/C=C/C(=O)c2ccc(N)cc2)c(C)c1 | 2.41 | 5.13
17 | O=C(Nc1cccnc1)c1cccc([N+](=O)[O-])c1 | > 100 | > 100
18 | COc1ccc(Cn2cnc3cc(C(=O)Nc4cccc5ccccc45)ccc32)c(OC)c1 | 0.0358 | 2.42
19 | CCCCCCCCCCCCSC(=NC)NC | 1.47 | 3.14
20 | COc1cc(C(=O)/C=C/c2c(-c3ccc(F)cc3)nc3ncccn23)cc(OC)c1OC | 2.75 | 6.89
21 | COc1cc(C2CC(c3ccc(Nc4ccnc5cc(Cl)ccc45)cc3)=NN2C=O)cc(OC)c1OC (configuration not stated) | 1.83 | 4.38

Row | Compound | GI50 [µM] | TGI [µM]
22 | O=C1Nc2ccccc2/C1=C/c1cn(C(=O)c2c(Cl)cccc2Cl)c2ccccc12 | 4.52 | 20.1
23 | O=C(NCC(=O)N1CC[C@H](NC2CCC(O)(c3ccc(-c4ncccn4)cn3)CC2)C1)c1cccc(C(F)(F)F)c1 (some centres not stated) | 19.6 | 95.4
24 | CCOCC(=O)N[C@H]1CCc2cc(OC(=O)COCC)c(OC)c(OC)c2-c2ccc(SC)c(=O)cc21 | 0.0714 | > 100
25 | COc1ccc(N(C)c2nc(Cl)nc3ccn(C)c23)cc1 | < 0.01 | > 100
26 | CS(=O)(=O)Nc1cccc(-c2ccc3c(NC(=O)C4CC4)n[nH]c3c2)c1 | 0.622 | 24.8
27 | O=C1CSC(=S)N1Cc1cccnc1 | 3.82 | 17
28 | Cn1ccnc1C(=O)/C=C/c1ccc(C(=O)Nc2ccccc2O)cc1 | 1.6 | 3.67
29 | CC(=O)Nc1ccc2c(c1)C(=O)c1cccc(F)c1-2 | 15.2 | 45.8
30 | NC(N)=N/N=C(/c1ccccc1)c1ccc(Cl)cc1 | 2.4 | 13
31 | N#Cc1c(NC(=O)c2cccc3ccccc23)sc2c1CCCC2 | 0.154 | > 7.22
32 | CC1(C)N=C(N)N=C(N)N1c1ccc(OCC(=O)N2CCOCC2)c(Cl)c1 | 1.23 | > 100
33 | O=c1oc2ccc(F)cc2c(=O)n1-c1ccc(Cl)cc1F | 1.51 | 5.31
34 | CCN(CC)CCCNc1nc2ccccc2c2c(=O)c3cc(Cl)ccc3sc12 | 1.59 | 4.85
35 | Cc1cc(NCCCCNc2ccnc3cc(Cl)ccc23)nc(Nc2ccc(C(=O)N3CCCC3)cc2)n1 | 1.82 | 4.04
36 | O=C(N/N=c1/ccoc2cccnc12)N1CCN(c2ncccn2)CC1 | < 0.01 | 1.34
37 | COc1ccc2cc3[n+](cc2c1OC)CCc1cc2c(cc1-3)OCO2 | 0.675 | 6.78
38 | Cc1ccc(NSc2ccccc2[N+](=O)[O-])cc1 | 0.57 | 16.3
39 | COc1ccc(/C(=N\O)c2cc(OC)c(OC)c(OC)c2)c(OC)c1N | 3.99 | > 100
40 | CC1CC(C)/C(=N/NC(N)=O)C(C(O)CC2CCC(=O)NC2=O)C1 (configuration not stated) | 9.15 | > 100
41 | COc1cc(OC)c2cc(C(=O)O)c(=O)oc2c1 | > 100 | > 100
